Reference: patent US11685734B2, “ATM kinase inhibitors and compositions and methods of use thereof” (CHDI Foundation, Inc., priority 2019, dated 2023)

Legend:
cellular ATM activity = cellular ATM activity (Homo sapiens (Human), UniProt Q13315); experiment: Inhibition of cellular ATM activity: etoposide-stimulated KAP1 phosphorylation in U20S cells; format: cell-based; details: 100 μM etoposide, 60 min, read-out: ATM CELL IC50
Description: Inhibition of cellular ATM activity was determined by changes in etoposide-stimulated KAP1 phosphorylation, based on the work of Guo et al. 2014.
Cryopreserved U20S cells were plated overnight at 6 k cells/well in black walled, clear bottomed 384 well plates (Greiner Bio One 781090). After overnight incubation (37 C, 5% CO2), cells were incubated with titrations of test compounds (0.3% DMSO final) in the presence of 100 μM etoposide (Sigma E1383) to stimulate ATM via induction of double stranded DNA breaks. After 60 min, cells were fixed using 100% cold methanol and incubated at −20° C. for 10 min. Fixed cells were washed with PBS containing 0.05% (v/v) Tween 20 (PBS-T) prior to a 60 minute blocking step in Odyssey blocking buffer (LI-COR Biosciences 92740000). Primary antibodies (1:1000 phosphorylated KAP1: Cell Signalling Technology 4127, 1:5000 total KAP1: Cell Signaling Technology 5868) were diluted in Odyssey blocking buffer and incubated overnight at 4° C., before addition of IRDye(R) conjugated secondary antibodies (LI-COR Biociences 926-32211, LI-COR Biosciences 926-68070) diluted 1:2000 in Odyssey blocking buffer for 60 min at room temperature and detection by LI-COR Odyssey (ImageStudio version 2.1.10, focus offset 4 mm, resolution 169 μm, lowest quality, intensities of 1 and 3 for 700 and 800 channels respectively). Immunoreactivity was quantified and the ratio of phosphorylated KAP1 calculated by dividing by the total KAP1 immunoreactivity. The percentage of inhibition was calculated for each concentration of compound using 100% (100 μM etoposide+30 μM KU-60019) and 0% effect controls (100 μM etoposide+DMSO). IC50 values represent the mean from at least two independent experiments.

[1] = target: Recombinant, full length human FLAG-tagged ATM (Homo sapiens (Human), UniProt Q13315); experiment: ATM ELISA for p53 S15 phosphorylation; format: biochemical; details: 0.75 nM ATM, 25 nM p53, 10 μM ATP, 30 min at 20° C.; read-out: ATM BIO IC50
Recombinant, full length human FLAG-tagged ATM, sequence (Q13315 whole entry): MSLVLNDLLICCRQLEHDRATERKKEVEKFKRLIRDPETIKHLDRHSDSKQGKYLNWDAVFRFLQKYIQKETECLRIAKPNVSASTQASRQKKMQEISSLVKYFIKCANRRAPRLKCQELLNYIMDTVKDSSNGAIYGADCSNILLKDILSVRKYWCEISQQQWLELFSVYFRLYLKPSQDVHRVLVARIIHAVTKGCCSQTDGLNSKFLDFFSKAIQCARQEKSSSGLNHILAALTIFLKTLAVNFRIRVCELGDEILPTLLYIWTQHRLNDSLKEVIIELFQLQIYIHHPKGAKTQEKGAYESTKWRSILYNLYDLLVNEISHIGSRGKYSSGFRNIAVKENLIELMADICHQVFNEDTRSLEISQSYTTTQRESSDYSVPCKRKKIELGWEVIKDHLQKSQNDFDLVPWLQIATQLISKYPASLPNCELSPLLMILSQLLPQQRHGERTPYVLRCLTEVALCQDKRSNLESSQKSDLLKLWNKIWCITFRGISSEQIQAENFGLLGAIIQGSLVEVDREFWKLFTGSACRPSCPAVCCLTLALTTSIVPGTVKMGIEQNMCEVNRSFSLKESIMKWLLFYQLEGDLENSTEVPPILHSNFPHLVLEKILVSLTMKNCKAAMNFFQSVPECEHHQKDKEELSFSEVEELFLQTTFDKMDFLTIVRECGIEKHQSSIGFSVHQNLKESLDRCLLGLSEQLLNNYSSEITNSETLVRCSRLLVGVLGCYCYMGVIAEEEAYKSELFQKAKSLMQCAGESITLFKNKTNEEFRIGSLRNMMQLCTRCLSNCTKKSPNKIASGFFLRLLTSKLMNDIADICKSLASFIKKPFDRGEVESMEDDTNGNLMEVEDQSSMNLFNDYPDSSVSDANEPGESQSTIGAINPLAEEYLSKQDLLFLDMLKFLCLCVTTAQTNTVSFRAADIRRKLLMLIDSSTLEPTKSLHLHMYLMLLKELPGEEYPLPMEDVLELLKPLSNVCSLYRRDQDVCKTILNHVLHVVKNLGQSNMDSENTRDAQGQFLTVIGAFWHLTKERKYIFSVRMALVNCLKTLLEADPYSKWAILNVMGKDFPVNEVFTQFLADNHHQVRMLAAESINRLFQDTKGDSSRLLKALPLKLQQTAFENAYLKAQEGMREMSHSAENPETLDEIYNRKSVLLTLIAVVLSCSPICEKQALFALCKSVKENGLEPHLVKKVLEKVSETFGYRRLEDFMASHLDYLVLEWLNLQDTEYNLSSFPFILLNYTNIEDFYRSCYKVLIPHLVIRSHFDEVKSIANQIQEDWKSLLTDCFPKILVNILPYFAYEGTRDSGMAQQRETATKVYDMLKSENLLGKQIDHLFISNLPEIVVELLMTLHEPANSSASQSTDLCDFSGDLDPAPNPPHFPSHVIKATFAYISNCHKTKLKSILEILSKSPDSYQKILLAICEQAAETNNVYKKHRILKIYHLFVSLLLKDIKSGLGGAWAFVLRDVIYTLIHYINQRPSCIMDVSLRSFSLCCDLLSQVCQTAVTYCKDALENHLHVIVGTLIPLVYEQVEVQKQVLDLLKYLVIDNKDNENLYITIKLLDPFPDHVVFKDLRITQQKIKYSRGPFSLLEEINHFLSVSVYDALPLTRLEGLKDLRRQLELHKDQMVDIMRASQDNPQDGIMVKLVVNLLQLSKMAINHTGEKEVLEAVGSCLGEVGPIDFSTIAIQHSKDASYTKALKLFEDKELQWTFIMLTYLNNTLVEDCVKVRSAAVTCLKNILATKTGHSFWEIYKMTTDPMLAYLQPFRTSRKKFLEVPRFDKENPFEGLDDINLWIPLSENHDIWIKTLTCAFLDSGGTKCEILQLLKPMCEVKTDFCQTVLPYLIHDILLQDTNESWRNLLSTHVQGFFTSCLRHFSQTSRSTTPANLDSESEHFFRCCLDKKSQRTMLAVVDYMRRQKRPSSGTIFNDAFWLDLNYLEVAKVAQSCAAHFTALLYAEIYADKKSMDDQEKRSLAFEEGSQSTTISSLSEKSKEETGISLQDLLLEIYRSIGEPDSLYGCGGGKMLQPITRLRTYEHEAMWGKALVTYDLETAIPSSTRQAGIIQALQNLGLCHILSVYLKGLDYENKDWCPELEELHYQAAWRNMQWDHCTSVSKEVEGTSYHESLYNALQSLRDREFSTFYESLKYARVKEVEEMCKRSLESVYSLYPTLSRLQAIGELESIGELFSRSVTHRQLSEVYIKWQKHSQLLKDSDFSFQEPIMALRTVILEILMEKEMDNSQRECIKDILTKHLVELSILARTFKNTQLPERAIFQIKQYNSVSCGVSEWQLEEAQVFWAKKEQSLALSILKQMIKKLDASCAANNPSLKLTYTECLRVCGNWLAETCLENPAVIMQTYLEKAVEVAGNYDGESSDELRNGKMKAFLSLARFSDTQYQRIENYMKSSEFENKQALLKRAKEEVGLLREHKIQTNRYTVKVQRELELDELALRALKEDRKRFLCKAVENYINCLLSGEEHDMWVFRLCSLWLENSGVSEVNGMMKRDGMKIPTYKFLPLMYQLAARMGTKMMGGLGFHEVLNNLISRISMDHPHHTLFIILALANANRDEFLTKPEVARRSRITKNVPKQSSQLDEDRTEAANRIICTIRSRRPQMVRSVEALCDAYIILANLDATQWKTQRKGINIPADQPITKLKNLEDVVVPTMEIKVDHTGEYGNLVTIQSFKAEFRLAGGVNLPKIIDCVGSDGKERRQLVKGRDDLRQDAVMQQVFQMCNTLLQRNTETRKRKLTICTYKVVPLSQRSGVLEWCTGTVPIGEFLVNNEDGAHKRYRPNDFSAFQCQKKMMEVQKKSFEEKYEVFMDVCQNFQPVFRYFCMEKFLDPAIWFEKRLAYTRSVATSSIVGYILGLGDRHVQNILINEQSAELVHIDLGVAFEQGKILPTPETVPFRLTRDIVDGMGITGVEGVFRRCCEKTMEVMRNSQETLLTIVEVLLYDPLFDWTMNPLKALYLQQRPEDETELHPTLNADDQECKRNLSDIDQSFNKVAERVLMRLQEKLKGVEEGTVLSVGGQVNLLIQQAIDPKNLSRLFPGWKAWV
Description: ATM: Recombinant, full length human FLAG-tagged ATM activity (Eurofins 14-933) was measured in an ELISA for p53 S15 phosphorylation, in a 384 well V-bottom polypropylene plate (Greiner Bio One 781280). Reactions contained 0.75 nM ATM, 25 nM full length myc tagged p53 (Eurofins 23-034), 10 μM UltraPure ATP (Promega V915B) and serial dilutions of inhibitors (0.1% DMSO final) in 25 mM HEPES, pH 7.5. 5 mM MgCl2, 2.5 mM MnCl2, 0.006% Brij-35, 0.5% glycerol, 0.1 mg/ml BSA, 0.5 mM DTT and were allowed to proceed for 30 min at 20° C. 70 mM EDTA final terminated the kinase reactions. An aliquot of the terminated reaction (25 μl) was transferred to a 384-well, high binding microplate (Greiner Bio One 781061), precoated with anti-myc capture antibody overnight (Millipore 05-724) diluted in 1:1000 in PBS, then blocked with Odyssey blocking buffer (LI-COR Biosciences 92740000) for 60 min at 20° C. The terminated reaction was allowed to capture for 2 h at 20° C. Phosphorylation was measured using an antibody specific to p53 S15 phosphorylation (1:5000 Abcam ab38497), anti-rabbit HRP (1:1000 Cell Signalling Technology, 7074) and TMB (ab171522). Antibodies were diluted in Odyssey blocking buffer and incubated for 60 min at 20° C. Three washes with PBS containing 0.05% (v/v) Tween 20 (PBS-T) were performed between each incubation. The TMB reaction was stopped with an equal volume of 0.2 M sulfuric acid and absorbance read at 450 nm on the Perkin Elmer Envision within 30 min of terminating the reaction. […] IC50 values represent the mean from at least two independent experiments.

cellular ATM activity, sequence (Q13315 whole entry): as above

Row | SMILES | IC50 (cellular ATM activity) [nM] | IC50 [1] [nM]
1 | COc1ccc(C[C@H]2CCCCCN2c2cc(N3CCOCC3)cc(=O)[nH]2)cc1 [Example 29, 6-[(2R)-2-[(4-methoxyphenyl)methyl]azepan-1-yl]-4-morpholino-1H-pyridin-2-one] | 371 | 32.5
2 | O=c1cc(N2CCOCC2)nc(N2CCC[C@@H]2Cc2ccccc2)[nH]1 [Example 178, (R)-2-(2-benzylpyrrolidin-1-yl)-6-morpholinopyrimidin-4-ol] | 451 | 8
3 | O=c1cc(N2CCOCC2)nc(N2C[C@H]3C[C@H]3[C@@H]2Cc2ccc(F)cc2)[nH]1 [Example 209] | 377 | 8.9
4 | COc1ccc(OC)c(C[C@H]2CCCCCN2c2cc(N3CCOCC3)cc(=O)[nH]2)c1 [Example 66] | 603 | 18.7
5 | O=c1cc(N2CCOCC2)cc(N2CCCCC[C@@H]2Cc2ccc(F)cc2)[nH]1 [Example 52, (R)-6-(2-(4-fluorobenzyl)azepan-1-yl)-4-morpholino pyridin-2(1H)-one] | 839 | 35.3
6 | COc1ccccc1C[C@H]1CC(F)(F)CCCN1c1cc(N2CCOCC2)cc(=O)[nH]1 [Example 62, (S)-6-(4,4-difluoro-2-(2-methoxybenzyl)azepan-1-yl)-4-morpholinopyridin-2(1H)-one] | 1250 | 40.5
7 | Cc1ccc(C[C@H]2CCCN2c2cc(N3CCOCC3)cc(=O)[nH]2)cc1 [Example 20, (R)-6-(2-(4-methylbenzyl)pyrrolidin-1-yl)-4-morpholinopyridin-2(1H)-one] | 2930 | 54.1
8 | O=c1cc(N2CCOCC2)cc(N2CC[C@@H](F)[C@@H]2Cc2ccccc2)[nH]1 [Example 96, 6-((2S,3R)-2-benzyl-3-fluoropyrrolidin-1-yl)-4-morpholinopyridin-2(1H)-one] | 270 | 5.5
9 | C[C@@H]1CCCN(c2cc(N3CCOCC3)cc(=O)[nH]2)[C@@H](Cc2ccccc2)C1 [Example 84, 6-((2R,4R)-2-benzyl-4-methylazepan-1-yl)-4-morpholinopyridin-2(1H)-one] | 864 | 47.6
10 | COc1cccc(C[C@H]2CCCCCN2c2nc(N3CCOCC3)cc(=O)[nH]2)c1OC [Example 230] | 881 | 71.2
11 | COc1cccc(C[C@H]2CCCN2c2cc(N3CCOCC3)cc(=O)[nH]2)c1 [Example 22, (R)-6-(2-(3-methoxybenzyl)pyrrolidin-1-yl)-4-morpholinopyridin-2(1H)-one] | 2680 | 55.3
12 | COc1cccc(C[C@H]2CCCCCN2c2cc(N3CCOCC3)cc(=O)[nH]2)c1 [Example 23, (R)-6-(2-(3-methoxybenzyl)azepan-1-yl)-4-morpholinopyridin-2(1H)-one] | 527 | 6.5
13 | O=c1cc(N2CCOCC2)nc(N2CCCC(F)(F)C[C@@H]2Cc2ccccc2)[nH]1 [Example 244] | 273 | 10.2
14 | COc1cc(F)ccc1C[C@H]1CCCCCN1c1cc(N2CCOCC2)cc(=O)[nH]1 [Example 50, (R)-6-(2-(4-fluoro-2-methoxybenzyl)azepan-1-yl)-4-morpholinopyridin-2(1H)-one] | 977 | 23
15 | COc1cc(F)ccc1C[C@H]1CCCCCN1c1nc(N2CCOCC2)cc(=O)[nH]1 [Example 228] | 756 | 69.5
16 | C[C@@H]1CN(c2cc(=O)[nH]c(N3CCCCC[C@@H]3Cc3cccc4c3OCC4)n2)CCO1 [Example 305, 2-((R)-2-((2,3-dihydrobenzofuran-7-yl)methyl)azepan-1-yl)-6-((R)-2-methylmorpholino)pyrimidin-4(3H)-one] | 569 | 39
17 | Cc1ccc(C[C@H]2CCCN2c2nc(N3CCOCC3)cc(=O)[nH]2)cc1 [Example 186] | 852 | 14.4
18 | C[C@@H]1CN(c2cc(=O)[nH]c(N3CC[C@@H](C)[C@@H]3Cc3ccccc3)n2)CCO1 [Example 294, 2-((2S,3R)-2-benzyl-3-methylpyrrolidin-1-yl)-6-((R)-2-methylmorpholino)pyrimidin-4(3H)-one] | 423 | 20.9
